Like-named read-outs stand apart in the source and are kept apart here.
Legend:
[1] = molecular target: T1, HDAC8 (Homo sapiens, UniProt Q9BY41); settings: cited from earlier work; for Activity (experimental pIC50): Table S2, training and test set molecules, converted from literature IC50; for IC50 / pIC50: Table S1, external validation set
T1 sequence (Q9BY41 1-377): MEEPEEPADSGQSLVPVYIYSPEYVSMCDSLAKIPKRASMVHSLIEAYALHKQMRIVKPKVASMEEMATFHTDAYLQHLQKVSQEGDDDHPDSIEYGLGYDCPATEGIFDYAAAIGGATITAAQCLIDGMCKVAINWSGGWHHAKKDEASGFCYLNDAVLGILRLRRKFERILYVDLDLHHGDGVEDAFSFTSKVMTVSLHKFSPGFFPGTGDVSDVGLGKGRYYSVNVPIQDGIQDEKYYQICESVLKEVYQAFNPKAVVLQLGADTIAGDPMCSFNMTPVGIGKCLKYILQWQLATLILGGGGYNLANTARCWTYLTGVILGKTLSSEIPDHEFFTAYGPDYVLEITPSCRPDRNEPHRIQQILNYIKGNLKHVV

[2] = molecular target: T1, HDAC8; assay: HDAC8 activity assay (fluorometric, Sigma CS1010, Boc-Lys(Ac)-AMC); assay type: biochemical; settings: read-out: HDAC-8 (IC50 in nM)
Description: (§1) HDAC 6 and 8 activities were measured according to the manufacturer’s protocol from Sigma (Cat# CS1010). […] Trichostatin A was used as a reference inhibitor. The Perkin Elmer multimode reader, model-Enspire 2300 was used for fluorescence plate reader.

[3] = molecular target: T2, HDAC6 (Homo sapiens, UniProt Q9UBN7); assay: HDAC6 activity assay (fluorometric, Sigma CS1010, Boc-Lys(Ac)-AMC); assay type: biochemical; settings: read-out: HDAC-6 (IC50 in nM)
T2 sequence (Q9UBN7 1-1215): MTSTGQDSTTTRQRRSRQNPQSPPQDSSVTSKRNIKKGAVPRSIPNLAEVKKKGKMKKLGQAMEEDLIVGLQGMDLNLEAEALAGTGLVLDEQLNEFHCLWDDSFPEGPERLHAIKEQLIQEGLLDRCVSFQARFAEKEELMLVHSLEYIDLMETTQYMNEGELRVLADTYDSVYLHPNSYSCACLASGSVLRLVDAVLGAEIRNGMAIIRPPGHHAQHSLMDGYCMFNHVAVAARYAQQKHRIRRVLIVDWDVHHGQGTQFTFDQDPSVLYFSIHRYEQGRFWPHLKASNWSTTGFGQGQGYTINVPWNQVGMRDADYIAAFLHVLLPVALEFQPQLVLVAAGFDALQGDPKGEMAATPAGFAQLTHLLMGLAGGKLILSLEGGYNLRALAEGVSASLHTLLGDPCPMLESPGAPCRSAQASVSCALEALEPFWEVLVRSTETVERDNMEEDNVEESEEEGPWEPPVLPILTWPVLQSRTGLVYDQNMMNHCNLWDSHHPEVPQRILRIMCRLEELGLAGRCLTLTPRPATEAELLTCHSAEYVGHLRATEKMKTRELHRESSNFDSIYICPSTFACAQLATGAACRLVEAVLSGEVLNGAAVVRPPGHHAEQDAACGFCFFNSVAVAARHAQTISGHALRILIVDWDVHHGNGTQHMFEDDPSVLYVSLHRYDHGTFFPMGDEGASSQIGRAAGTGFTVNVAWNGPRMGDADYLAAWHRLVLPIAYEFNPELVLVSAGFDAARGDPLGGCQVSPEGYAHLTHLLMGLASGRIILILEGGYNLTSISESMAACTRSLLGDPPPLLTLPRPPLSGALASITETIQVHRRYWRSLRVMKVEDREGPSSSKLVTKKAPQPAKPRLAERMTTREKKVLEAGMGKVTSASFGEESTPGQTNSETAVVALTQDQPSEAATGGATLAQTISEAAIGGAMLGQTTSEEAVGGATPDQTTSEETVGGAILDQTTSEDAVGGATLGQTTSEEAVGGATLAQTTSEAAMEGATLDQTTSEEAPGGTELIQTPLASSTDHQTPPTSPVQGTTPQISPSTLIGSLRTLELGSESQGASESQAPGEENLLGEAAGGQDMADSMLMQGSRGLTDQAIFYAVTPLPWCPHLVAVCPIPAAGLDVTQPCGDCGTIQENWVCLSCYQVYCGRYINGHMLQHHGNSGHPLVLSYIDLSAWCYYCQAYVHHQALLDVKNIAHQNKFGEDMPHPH
Description: as §1

SMILES | Activity (experimental pIC50) [1] | IC50 [1] [µM] | pIC50 [1] | IC50 [2] [nM] | IC50 [3] [nM]
O=C(NO)c1ccc(-c2cccc(CNCCc3ccccn3)c2)s1 [compound 7] | 7.301 | – | – | – | –
CN(C)Cc1c(C(=O)NCCOc2ccc(C(=O)NO)cc2)oc2ccccc12 [compound 12] | – | 19.7 | 4.706 | – | –
COc1cccc(-c2nc(CNc3ccccc3SCC(N)=O)cs2)c1 [SD-01, 2-((2-(((2-(3-methoxyphenyl)thiazol-4-yl)methyl)amino)phenyl)thio)acetamide] | – | – | – | 9 | > 100
COC(=O)c1ccc(Oc2coc3cc(OCC(N)=O)ccc3c2=O)cc1 [SD-03, methyl 4-((7-(2-amino-2-oxoethoxy)-4-oxo-4H-chromen-3-yl)oxy)benzoate] | – | – | – | > 100 | > 100
Cc1ccc(S(=O)(=O)NC(=O)NCc2ccc(C(=O)NO)cc2)cc1 [compound 6] | 7.310 | – | – | – | –
CONC(=O)NCc1ccc2cc(OC)ccc2c1 [SD-05, 1-methoxy-3-((6-methoxynaphthalen-2-yl)methyl)urea] | – | – | – | 41.6 | 30.9
O=C(Cc1cccc(NC(=O)NC(=O)c2ccccc2)c1)NO [compound 10] | 6.824 | 66.0 | 4.18 | – | –
C[C@H](N)C(=O)NCc1nnc(-c2ccccc2)o1 [compound 31] | 7.009 | – | – | – | –
CC(/C=C/C(=O)NO)=C\C(C)Cc1ccc(N(C)C)cc1 (stereo not shown) [compound 20] | 6.398 | 0.22 | 6.658 | – | –
O=C(/C=C/c1ccc2c(c1)nc(COCc1ccccc1)n2CCc1cccnc1)NO [compound 15] | – | 0.18 | 6.745 | – | –
O=C(/C=C/c1ccc(CN(CCc2cc3ccccc3[nH]2)C(=O)NC(=O)c2ccccc2)cc1)NO [compound 13] | 6.678 | 15.7 | 4.804 | – | –
O=C(/C=C/c1ccc2c(c1)nc(-c1ccccn1)n2C[C@H](O)CO)NO [compound 17] | 6.463 | 1.40 | 5.854 | – | –
O=C(/C=C/c1ccc2c(c1)ncn2Cc1ccccc1)NO [compound 21] | – | 0.052 | 7.284 | – | –
O=C(/C=C/c1ccc(CN(CCN2CCCCC2)C(=O)NC(=O)c2ccccc2)cc1)NO [compound 14] | 6.638 | 0.35 | 6.456 | – | –
Cc1ccc(Cc2cn(C)c3cc(C(=O)NO)ccc23)cc1 [compound 2] | 7.620 | – | – | – | –
O=C(COc1ccccc1)Cc1nc(-c2ccc(C(=O)NO)s2)cs1 [compound 3] | 7.420 | – | – | – | –
O=C(NO)c1ccc(CN2CCN(C(=O)NC(=O)c3ccccc3)CC2)cc1 [compound 22] | 6.337 | 0.029 | 7.538 | – | –
O=C(Cc1ccc(-c2csc(NC(=O)c3cnc([C@H]4CCCNC4)s3)n2)s1)NO [compound 4] | 7.398 | – | – | – | –
O=C(CCCCCNC(=O)NC(=O)c1ccccc1)NO [compound 25] | 5.971 | – | – | – | –
O=C(Nc1cccc(-c2cc(C(=O)NO)n[nH]2)c1)c1ccccc1 [compound 18] | 6.456 | 0.15 | 6.824 | – | –
O=C(NO)c1ccc(NC(=S)NN=C(c2ccccc2)c2ccccc2)cc1 [compound 30] | 4.633 | – | – | – | –
CC(=O)SCC(=O)CCCCCCC(=O)Nc1ccccc1 [compound 11] | – | 0.70 | 6.155 | – | –
O=C(Cc1ccc(-c2csc(NC(=O)c3ccn(CC4CCNCC4)c3-c3ccccc3)c2)s1)NO [compound 9] | 6.854 | – | – | – | –
Cc1ccc(S(=O)(=O)NC(=O)Nc2cccc(/C=C/C(=O)NO)c2)cc1 [compound 5] | 7.398 | – | – | – | –
NC(=O)Cc1nc(-c2cc3cc(Cl)ccc3o2)cs1 [SD-04, 2-(4-(5-chlorobenzofuran-2-yl)thiazol-2-yl)acetamide] | – | – | – | > 100 | > 100
CN(C)CC(C)(C)Cn1c(CCc2ccccc2)nc2cc(/C=C/C(=O)NO)ccc21 [compound 19] | – | 0.12 | 6.921 | – | –
O=C(Cc1ccccc1)Nc1nc(-c2cc(C(=O)NO)no2)cs1 [compound 16] | 6.469 | 0.10 | 7 | – | –

Source: paper PMC6868012, “Discovery of novel potential selective HDAC8 inhibitors by combine ligand-based, structure-based virtual screening and in-vitro biological evaluation” (Scientific Reports, 2019)
